{
  "source": "patent US7759384B2",
  "about": "“Carvedilol phosphate salts and/or solvates thereof, corresponding compositions, and/or methods of treatment” (SmithKline Beecham (Cork) Limited, priority 2002, dated 2010)",
  "key": {"[1]": {"conditions": "cited from earlier work"}, "[2]": {"assay": "aqueous solubility of carvedilol phosphate salts compared with free base and other salts", "assay_type": "physicochemical", "conditions": "novel crystalline forms"}},
  "note": "Where two headings read alike, the source gives them in different places.",
  "data": [
    {"smiles": "COc1ccccc1OCCNCC(O)COc1cccc2[nH]c3ccccc3c12.Cl", "note": "(centres unmarked) [hydrochloride salt of carvedilol]", "values": [
      {"measurement": "solubility in acidic medium", "setting": "[1]; salt generated in situ in acidic medium, which simulates gastric fluid", "result": "less soluble"}
    ]},
    {"smiles": "COc1ccccc1OCCNCC(O)COc1cccc2[nH]c3ccccc3c12", "note": "(racemic) [Carvedilol]", "values": [
      {"measurement": "solubility", "setting": "[1]; neutral or alkaline media, above a pH of 9.0", "result": "< 1", "unit": "µg/mL"},
      {"measurement": "saturation solubility", "setting": "[1]; pH=5, room temperature", "result": "about 100 μg/mL"},
      {"measurement": "saturation solubility", "setting": "[1]; pH=7, room temperature", "result": "about 23 μg/mL"}
    ]},
    {"smiles": "COc1ccccc1OCCNCC(O)COc1cccc2[nH]c3ccccc3c12.O=P(O)(O)O", "note": "(centres unmarked) [carvedilol dihydrogen phosphate]", "values": [
      {"measurement": "solubility compared to the free base of carvedilol", "setting": "[2]", "result": "much higher solubility"}
    ]}
  ]
}
